Entries after “also recorded” stand apart in the source; their conditions may differ. Where a name gives a salt, the structure may show the parent alone.
Test: Stability of a galantamine hydrobromide aqueous solution as a function of pH (HPLC, degradation products)
Assay type: physicochemical
Conditions: 10 mg/ml aqueous solution; neutral (water pH 5.2); 80° C.; storage 24 hours
Procedure: (c) Stability of a Galantamine Hydrobromide Aqueous Solution as a Function of pH
A galantamine hydrobromide 10 mg/ml aqueous solution was stored in acid, neutral and alkaline conditions at 80° C. for 1 up to 24 hours. After storage, the solutions were analyzed using HPLC for the presence of degradation products.

In the case of `COc1ccc2c3c1O[C@H]1C[C@@H](O)C=C[C@@]31CCN(C)C2` [Galantamine hydrobromide, [4aS-(4aα, 6β, 8aR*)]-4a, 5,9,10,11,12-hexa-hydro-3-methoxy-11-methyl-6H-benzofuro[3a,3,2-ef][2]benzazepin-6-ol], the Degradation compounds is reported as “remained stable; also recorded: No degradation detected”.

From patent US20050063998A1, “Oral solution containing galantamine and a sweetening agent” (priority 1999, published 2005)
